# Where two headings read alike, the source gives them in different places.
# Columns and labels:
# [1] = taken hours after ingestion; cited from earlier work
# [2] = target: T1, hNET (Homo sapiens, UniProt P23975); assay: biochemical; type: binding
# [3] = target: T2, hDAT (Homo sapiens, UniProt Q01959); assay: Inhibition of [^125I]RTI-55 binding to hDAT
# [4] = target: T3, 5-HT2A receptor (Homo sapiens, UniProt P28223); assay: cell-based; type: cell-based
# [5] = target: T4, human 5-HT1A receptor (Homo sapiens, UniProt P08908); assay: 5-HT1A receptor [^3H]8-OH-DPAT radioligand binding
# T4 sequence (P08908 1-422): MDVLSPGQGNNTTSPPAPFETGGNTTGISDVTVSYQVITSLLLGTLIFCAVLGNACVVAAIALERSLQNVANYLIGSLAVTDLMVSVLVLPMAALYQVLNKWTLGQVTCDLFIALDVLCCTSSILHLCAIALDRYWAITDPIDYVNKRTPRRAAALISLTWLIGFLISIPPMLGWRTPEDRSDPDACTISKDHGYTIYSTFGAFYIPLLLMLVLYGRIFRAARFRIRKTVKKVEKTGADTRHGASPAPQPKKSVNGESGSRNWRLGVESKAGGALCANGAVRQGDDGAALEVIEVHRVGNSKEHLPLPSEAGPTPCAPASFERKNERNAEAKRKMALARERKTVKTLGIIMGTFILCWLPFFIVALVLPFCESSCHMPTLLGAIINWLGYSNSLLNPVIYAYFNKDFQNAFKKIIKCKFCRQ
# [6] = target: T4, human 5-HT1A receptor; assay: 5-HT1A receptor [^35S]GTPγS binding stimulation; type: biochemical
# [7] = target: T1, hNET; assay: Release of preloaded [^3H]NE from HEK-hNET cells; type: cell-based; settings: for % maximum release, hNET [^3H]NE: relative to maximum release induced by METH (0.3–1 μM)
# [8] = target: T5, 5-HT2B receptor (Homo sapiens, UniProt P41595); assay: 5-HT2B receptor inositol monophosphate; type: cell-based; settings: for % maximum stimulation, 5-HT2B stimulation of IP-1 formation: normalized to the maximal stimulation by 5-HT
# T5 sequence (P41595 whole entry): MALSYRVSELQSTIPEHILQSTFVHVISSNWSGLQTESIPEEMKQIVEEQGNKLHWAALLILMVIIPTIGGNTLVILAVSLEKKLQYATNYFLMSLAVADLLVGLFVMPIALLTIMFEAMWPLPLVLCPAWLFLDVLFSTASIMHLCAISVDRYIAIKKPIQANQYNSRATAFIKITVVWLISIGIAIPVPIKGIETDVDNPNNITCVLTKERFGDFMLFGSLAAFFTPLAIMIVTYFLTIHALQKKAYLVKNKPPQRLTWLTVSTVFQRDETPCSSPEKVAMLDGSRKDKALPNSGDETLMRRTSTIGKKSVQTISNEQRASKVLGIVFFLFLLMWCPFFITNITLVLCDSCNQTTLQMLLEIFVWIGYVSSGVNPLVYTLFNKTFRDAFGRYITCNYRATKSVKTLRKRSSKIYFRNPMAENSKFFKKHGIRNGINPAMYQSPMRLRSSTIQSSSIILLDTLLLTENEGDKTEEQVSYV
# [9] = target: T6, hSERT (Homo sapiens, UniProt P31645); assay: Inhibition of [^125I]RTI-55 binding to hSERT
# T6 sequence (P31645 whole entry): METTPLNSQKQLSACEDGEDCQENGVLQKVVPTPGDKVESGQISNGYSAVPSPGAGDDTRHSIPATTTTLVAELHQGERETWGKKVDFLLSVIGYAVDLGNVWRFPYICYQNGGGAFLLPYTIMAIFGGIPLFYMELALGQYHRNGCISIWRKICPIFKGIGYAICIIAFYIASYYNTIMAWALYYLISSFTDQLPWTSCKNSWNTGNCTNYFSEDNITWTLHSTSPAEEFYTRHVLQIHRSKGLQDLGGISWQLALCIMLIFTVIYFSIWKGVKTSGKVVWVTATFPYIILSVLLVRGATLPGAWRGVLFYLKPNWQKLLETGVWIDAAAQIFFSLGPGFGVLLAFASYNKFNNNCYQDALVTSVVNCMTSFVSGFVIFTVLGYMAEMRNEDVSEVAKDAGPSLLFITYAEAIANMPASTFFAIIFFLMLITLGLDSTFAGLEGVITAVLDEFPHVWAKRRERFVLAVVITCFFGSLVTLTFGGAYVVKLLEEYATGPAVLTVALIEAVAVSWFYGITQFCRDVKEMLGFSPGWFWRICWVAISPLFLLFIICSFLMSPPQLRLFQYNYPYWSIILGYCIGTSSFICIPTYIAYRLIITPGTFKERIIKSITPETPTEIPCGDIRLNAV
# [10] = target: T3, 5-HT2A receptor; assay: biochemical; type: binding
# [11] = target: T6, hSERT; assay: Release of preloaded [^3H]5-HT from HEK-hSERT cells; type: cell-based; settings: for % maximum release, hSERT [^3H]5-HT: relative to maximum release induced by METH (0.3–1 mM)
# [12] = target: T2, hDAT; assay: Release of preloaded [^3H]DA from HEK-hDAT cells; type: cell-based; settings: for % maximum release, hDAT [^3H]DA: relative to maximum release induced by METH (1–10 μM)
# [13] = target: T5, 5-HT2B receptor; assay: 5-HT2B receptor [^3H]5-HT binding
# [14] = target: T7, 5-HT2C receptor (Homo sapiens, UniProt P28335); assay: cell-based
# T7 sequence (P28335 33-458): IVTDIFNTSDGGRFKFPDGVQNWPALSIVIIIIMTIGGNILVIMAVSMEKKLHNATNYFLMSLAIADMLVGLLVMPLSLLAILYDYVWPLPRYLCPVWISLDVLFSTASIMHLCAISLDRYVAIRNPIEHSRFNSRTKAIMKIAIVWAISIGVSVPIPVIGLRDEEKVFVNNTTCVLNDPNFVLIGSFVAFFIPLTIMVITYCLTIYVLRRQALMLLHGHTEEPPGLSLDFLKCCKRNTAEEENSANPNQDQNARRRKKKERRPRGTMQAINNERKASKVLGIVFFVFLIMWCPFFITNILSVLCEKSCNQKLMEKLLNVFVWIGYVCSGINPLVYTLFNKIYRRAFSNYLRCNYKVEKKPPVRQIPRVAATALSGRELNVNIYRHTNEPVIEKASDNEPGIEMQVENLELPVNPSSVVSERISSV
# [15] = target: T2, hDAT; assay: Inhibition of [^3H]DA uptake by HEK-hDAT cells; type: cell-based
# [16] = target: T6, hSERT; assay: Inhibition of [^3H]5-HT uptake by HEK-hSERT cells; type: cell-based
# [17] = target: T1, hNET; assay: cell-based
# [18] = read-out: Inhibition of [^125I]RTI-55 binding Ki, hNET, mean ± sem, HEK-hNET
# [19] = read-out: Inhibition of [^125I]RTI-55 binding Ki, hDAT, mean ± sem, HEK-hDAT
# [20] = read-out: Drug-induced release of [^3H]neurotransmitter EC50, hNET [^3H]NE, mean ± sem, HEK-hNET
# [21] = read-out: Inhibition of [^125I]RTI-55 binding Ki, hSERT, mean ± sem, HEK-hSERT
# [22] = read-out: Drug-induced release of [^3H]neurotransmitter EC50, hSERT [^3H]5-HT, mean ± sem, HEK-hSERT
# [23] = read-out: Drug-induced release of [^3H]neurotransmitter EC50, hDAT [^3H]DA, mean ± sem, HEK-hDAT
# T3 sequence (P28223 whole entry): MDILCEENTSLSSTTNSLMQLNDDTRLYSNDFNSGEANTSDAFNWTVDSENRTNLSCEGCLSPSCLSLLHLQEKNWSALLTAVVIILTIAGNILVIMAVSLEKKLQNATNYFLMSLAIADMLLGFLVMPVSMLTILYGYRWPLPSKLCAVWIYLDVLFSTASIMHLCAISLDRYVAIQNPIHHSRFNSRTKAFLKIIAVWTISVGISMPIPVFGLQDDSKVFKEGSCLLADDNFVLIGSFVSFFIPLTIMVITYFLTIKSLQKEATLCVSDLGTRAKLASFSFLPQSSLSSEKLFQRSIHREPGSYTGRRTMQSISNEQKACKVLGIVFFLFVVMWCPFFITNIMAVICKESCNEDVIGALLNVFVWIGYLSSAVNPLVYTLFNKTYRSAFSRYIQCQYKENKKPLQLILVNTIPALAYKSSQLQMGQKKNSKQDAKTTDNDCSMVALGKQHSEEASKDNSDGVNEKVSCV
# T2 sequence (Q01959 whole entry): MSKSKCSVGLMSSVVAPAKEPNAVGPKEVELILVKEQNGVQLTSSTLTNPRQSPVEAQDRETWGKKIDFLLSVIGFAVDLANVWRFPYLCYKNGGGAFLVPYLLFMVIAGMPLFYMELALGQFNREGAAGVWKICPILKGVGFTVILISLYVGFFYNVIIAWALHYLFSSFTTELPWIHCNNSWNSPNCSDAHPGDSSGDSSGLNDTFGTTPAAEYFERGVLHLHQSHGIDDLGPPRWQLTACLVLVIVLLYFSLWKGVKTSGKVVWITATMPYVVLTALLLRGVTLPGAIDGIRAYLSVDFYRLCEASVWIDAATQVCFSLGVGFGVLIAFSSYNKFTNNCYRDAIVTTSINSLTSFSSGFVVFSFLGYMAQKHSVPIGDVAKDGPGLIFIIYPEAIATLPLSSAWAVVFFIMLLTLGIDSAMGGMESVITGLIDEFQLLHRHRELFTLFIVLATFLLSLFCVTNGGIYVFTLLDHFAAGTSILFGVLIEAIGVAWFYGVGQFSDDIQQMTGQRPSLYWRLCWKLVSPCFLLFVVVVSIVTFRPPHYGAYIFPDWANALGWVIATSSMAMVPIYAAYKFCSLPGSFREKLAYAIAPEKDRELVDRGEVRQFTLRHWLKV
# T1 sequence (P23975 whole entry): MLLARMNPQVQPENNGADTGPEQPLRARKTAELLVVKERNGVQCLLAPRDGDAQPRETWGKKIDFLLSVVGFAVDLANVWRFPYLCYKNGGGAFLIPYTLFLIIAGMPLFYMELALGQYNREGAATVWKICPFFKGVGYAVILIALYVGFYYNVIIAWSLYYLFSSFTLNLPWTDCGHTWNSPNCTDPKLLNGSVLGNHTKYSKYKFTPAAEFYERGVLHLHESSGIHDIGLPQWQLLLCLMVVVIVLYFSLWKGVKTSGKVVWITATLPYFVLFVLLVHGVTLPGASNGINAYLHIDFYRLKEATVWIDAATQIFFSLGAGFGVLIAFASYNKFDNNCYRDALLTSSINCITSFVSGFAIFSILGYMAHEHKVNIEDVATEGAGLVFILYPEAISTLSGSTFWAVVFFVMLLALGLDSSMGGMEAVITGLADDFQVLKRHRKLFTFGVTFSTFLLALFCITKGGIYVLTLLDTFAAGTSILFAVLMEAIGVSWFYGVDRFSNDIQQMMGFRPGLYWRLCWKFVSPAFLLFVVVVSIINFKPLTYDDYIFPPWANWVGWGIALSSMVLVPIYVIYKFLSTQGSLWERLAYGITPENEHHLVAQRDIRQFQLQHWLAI
compound,measurement,setting,value
COc1cc(CCNCc2ccccc2OC)c(OC)cc1Cl [25C-NBOMe],Human blood concentration,[1],2.80 ng/mL
"COc1cc(CC(C)N)c(OC)cc1C (single isomer, unassigned; (-)) [DOM, (-)2,5-dimethoxy-4-methylamphetamine, reference compound]",Ki,[2]; [18],> 100 µM
same,Ki,[3]; [19],> 100 µM
same,"% maximum stimulation, 5-HT2A stimulation of IP-1 formation",[4],39.9 ± 5.4 (3) 94.6 ± 4.1%
same,EC50,"[4]; read-out: EC50, 5-HT2A stimulation of IP-1 formation",0.0399 µM
same,Ki,"[5]; read-out: Inhibition of radioligand binding Ki, 5-HT1A [^3H]8OH-DPAT, mean ± sem, recombinant human 5-HT1A in HEK cells, agonist radioligand",3.66 ± 0.47 µM
same,"% maximum stimulation, 5-HT1A stimulation of [^35S]GTPγS binding",[6]; normalized to the maximal stimulation by 5-HT,74 ± 25%
same,EC50,"[6]; read-out: EC50, 5-HT1A stimulation of [^35S]GTPγS binding, mean ± sem",12.8 ± 4.7 µM
same,EC50,[7]; [20],> 42 µM
same,"% maximum release, hNET [^3H]NE",[7],25.5 ± 2.0%
same,"% maximum stimulation, 5-HT2B stimulation of IP-1 formation",[8],96.2 ± 3.2%
same,EC50,"[8]; read-out: EC50, 5-HT2B stimulation of IP-1 formation, mean ± sem",0.145 ± 0.047 µM
same,Ki,[9]; [21],> 100 µM
same,Ki,"[10]; read-out: Inhibition of radioligand binding Ki, 5-HT2A [^125I]DOI",0.0183 µM
same,EC50,[11]; [22],> 100 µM
same,"% maximum release, hSERT [^3H]5-HT",[11],2.9 ± 3.4%
same,EC50,[12]; [23],> 100 µM
same,"% maximum release, hDAT [^3H]DA",[12],−0.20 ± 0.16%
"CN[C@@H](C)Cc1ccccc1 [METH, (S+)methamphetamine, reference compound]",EC50,[7]; [20],0.152 ± 0.056 µM
same,"% maximum release, hNET [^3H]NE",[7],106.7 ± 3.3%
same,EC50,[11]; [22],27.5 ± 7 µM
same,"% maximum release, hSERT [^3H]5-HT",[11],104.9 ± 6.8%
same,EC50,[12]; [23],0.43 ± 0.15 µM
same,"% maximum release, hDAT [^3H]DA",[12],104.1 ± 1.3%
"CCN(CC)C(=O)[C@@H]1C=C2c3cccc4[nH]cc(c34)C[C@H]2N(C)C1 [LSD, (+)lysergic acid diethylamide, reference compound]",Ki,[2]; [18],76.9 ± 8.5 µM
same,Ki,[3]; [19],> 100 µM
same,"% maximum stimulation, 5-HT2A stimulation of IP-1 formation",[4],0.706 ± 0.065 (3) 64.5 ± 6.3%
same,EC50,[7]; [20],> 91 µM
same,"% maximum release, hNET [^3H]NE",[7],35.7 ± 4.2%
same,"% maximum stimulation, 5-HT2B stimulation of IP-1 formation",[8],23.3 ± 4.9%
same,Ki,[9]; [21],62.9 ± 5 µM
same,EC50,[11]; [22],> 100 µM
same,"% maximum release, hSERT [^3H]5-HT",[11],−0.59 ± 0.55%
same,EC50,[12]; [23],> 54 µM
same,"% maximum release, hDAT [^3H]DA",[12],7.4 ± 4.7%
"CCc1cc(OC)c(CCNCc2ccccc2OC)cc1OC [25E-NBOMe, 2-(4-ethyl-2,5-dimethoxyphenyl)-N-(2-methoxybenzyl)ethanamine]",Ki,[2],5.4 ± 1 µM
same,Ki,[3],19.6 ± 1.2 µM
same,EC50,"[4]; EC50, 5-HT2A stimulation of IP-1 formation, mean ± sem",0.0005 ± 0.00014 µM
same,Selectivity (functional ratios) 5-HT2A: 5-HT1A,[4]; ratio of EC50 values,"27,000"
same,Selectivity (functional ratios) 5-HT2A: 5-HT2B,[4]; ratio of EC50 values,47
same,Selectivity (functional ratios) 5-HT2A: 5-HT2C,[4]; ratio of EC50 values,1.9
same,Emax,"[4]; read-out: % maximum stimulation, 5-HT2A stimulation of IP-1 formation",87.1%
same,Ki,[5],1.68 ± 0.35 µM
same,EC50,[6],13.7 ± 5.6 µM
same,Emax,"[6]; read-out: % maximum stimulation, 5-HT1A stimulation of [^35S]GTPγS binding",38%
same,EC50,[7],> 66 µM
same,"% maximum release, hNET [^3H]NE",[7],17.1 ± 5.9%
same,EC50,[8],0.0235 ± 0.006 µM
same,Emax,"[8]; read-out: % maximum stimulation, 5-HT2B stimulation of IP-1 formation",49.4%
same,Ki,[9],1.59 ± 0.12 µM
same,Ki,[13],0.00111 ± 0.00032 µM
same,EC50,[14],0.00095 ± 0.00018 µM
same,Emax,"[14]; read-out: % maximum stimulation, 5-HT2C stimulation of IP-1 formation",91.8%
same,Ki,[10],0.000127 ± 1.9e-05 µM
same,Selectivity (binding ratios) 5-HT2A : 5-HT1A,[10]; ratio of Ki values,13200
same,Selectivity (binding ratios) 5-HT2A : 5-HT2B,[10]; ratio of Ki values,8.7
same,Selectivity (binding ratios) 5-HT2A : 5-HT2C,[10]; ratio of Ki values,2.4
same,EC50,[11],> 100 µM
same,"% maximum release, hSERT [^3H]5-HT",[11],0.21 ± 0.77%
same,IC50,[15],34 ± 10 µM
same,IC50,[16],1.44 ± 0.14 µM
same,EC50,[12],> 85 µM
same,"% maximum release, hDAT [^3H]DA",[12],5.8 ± 6.4%
same,IC50,[17],2.31 ± 0.7 µM
